Test results from patent US7935722B2 (Eli Lilly and Company, priority 2005, dated 2011).
Where two headings read alike, the source gives them in different places.

What was measured:
[1] = molecular target: T1, human androgen receptor (AR) (Homo sapiens, UniProt P10275); assay: C2C12 AR/ARE reporter assay; type: cell-based
T1 construct: expressed in transfected cells; host or cells: mouse myoblast C2C12 cells, transiently co-transfected
T1 sequence (P10275 1-920): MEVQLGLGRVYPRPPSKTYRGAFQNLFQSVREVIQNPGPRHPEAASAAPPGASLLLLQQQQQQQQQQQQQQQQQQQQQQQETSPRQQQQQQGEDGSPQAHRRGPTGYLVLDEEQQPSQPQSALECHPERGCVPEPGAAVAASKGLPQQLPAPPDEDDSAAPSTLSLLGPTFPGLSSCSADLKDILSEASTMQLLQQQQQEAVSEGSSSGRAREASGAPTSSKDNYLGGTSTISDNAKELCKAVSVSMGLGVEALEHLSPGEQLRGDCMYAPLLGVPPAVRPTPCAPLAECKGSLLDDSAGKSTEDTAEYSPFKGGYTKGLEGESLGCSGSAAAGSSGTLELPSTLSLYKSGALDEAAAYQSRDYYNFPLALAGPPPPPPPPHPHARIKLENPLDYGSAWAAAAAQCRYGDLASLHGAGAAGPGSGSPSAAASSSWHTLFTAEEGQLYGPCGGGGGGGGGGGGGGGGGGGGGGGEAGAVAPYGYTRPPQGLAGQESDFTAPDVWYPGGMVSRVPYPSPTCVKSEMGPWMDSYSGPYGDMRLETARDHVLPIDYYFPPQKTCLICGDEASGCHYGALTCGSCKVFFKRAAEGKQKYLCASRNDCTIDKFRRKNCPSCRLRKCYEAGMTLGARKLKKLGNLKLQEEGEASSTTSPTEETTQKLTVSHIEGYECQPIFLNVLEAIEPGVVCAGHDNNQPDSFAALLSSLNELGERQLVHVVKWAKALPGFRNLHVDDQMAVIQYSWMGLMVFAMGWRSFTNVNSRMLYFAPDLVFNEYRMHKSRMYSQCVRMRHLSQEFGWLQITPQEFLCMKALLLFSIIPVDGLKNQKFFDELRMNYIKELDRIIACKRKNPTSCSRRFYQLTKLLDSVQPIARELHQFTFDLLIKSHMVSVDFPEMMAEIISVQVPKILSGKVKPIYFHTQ
Protocol: As an indicator of agonist activity in muscle tissue, the C2C12 AR/ARE reporter assay is performed. Briefly, mouse myoblast C2C12 cells are co-transfected using FuGENE™. […] Cells are transfected in T150 cm^2 flasks in DMEM media with 4% or 10% Fetal Bovine Serum […]. After a 5 hour incubation, transfected cells are trypsinized, plated in 96 well dishes in DMEM media containing 10% charcoal-stripped FBS, incubated for 2 h and then exposed to various concentrations of test compounds ranging from about 0.01 nM to 10 μM. After 48 h of incubations with compounds, cells are lysed and luciferase activity is determined using standard techniques. Data is fit to a 4 parameter-fit logistics to determine EC50 values. The % efficacy is determined versus maximum stimulation obtained with 10 nM methyltrienolone. […]

[2] = molecular target: T2, human AR (androgen receptor) (Homo sapiens, UniProt P10275); assay: Steroid hormone nuclear receptor binding assay, AR binding
T2 construct: expressed in transfected cells; host or cells: 293 cells (293-AR lysate)
T2 sequence (P10275 1-920): T1 sequence (P10275 1-920)
Protocol: Cell lysates from 293 cells overexpressing human GR (glucocorticoid receptor), AR (androgen receptor), MR (mineralocorticoid receptor) or PR (progesterone receptor) are used for competition binding assays to determine Ki values for test compounds. […] Competing compounds are added at various concentrations ranging from about 0.01 nM to 10 μM. Non-specific binding is determined in the presence of 500 nM dexamethasone for GR binding, 500 nM aldosterone for MR binding, or 500 nM methyltrienolone for AR and PR binding. The binding reaction (140 μl) is incubated for overnight at 4° C., then 70 μl of cold charcoal-dextran buffer (containing per 50 ml of assay buffer, 0.75 g of charcoal and 0.25 g of dextran) is added to each reaction. Plates are mixed 8 minutes on an orbital shaker at 4° C. Plates are then centrifuged at 3,000 rpm at 4° C. for 10 minutes. An aliquot of 120 μl of the mix is transferred to another 96-well plate and 175 μl of Wallac Optiphase “Hisafe 3” scintillation fluid is added to each well. Plates are sealed and shaken vigorously on an orbital shaker. After an incubation of 2 hrs, plates are read in a Wallac Microbeta counter. […] The Kd for ^3H-dexamethasone for GR binding, ^3H-methyltrienolone for AR binding, ^3H-aldosterone for MR binding, or ^3H-methyltrienolone for PR binding, is determined by saturation binding. The IC50 values for test compounds are converted to Ki using Cheng-Prusoff equation and the Kd determined by saturation binding assay. […]

[3] = C2C12, read-out: C2C12 % Efficacy
[4] = C2C12 AR/ARE reporter assay, average of n trials, read-out: C2C12 % Efficacy
[5] = C2C12 AR/ARE reporter assay, average of n trials, read-out: C2C12 EC50
[6] = average of n trials, read-out: AR binding Ki

Row | SMILES | EC50 [1] | Emax [1, 3] | Ki [2] | Emax [1, 4] | EC50 [1, 5] | Ki [2, 6] | C2C12 % Efficacy ([1]; C2C12 AR/ARE reporter assay, average of n trials)
1 | CC(C)C(=O)N[C@@H]1CCc2c(c3cc(C#N)ccc3n2Cc2ccccc2N)C1 (single isomer, unassigned) [Example 110, R-N-[9-(2-Amino-benzyl)-6-cyano-2,3,4,9-tetrahydro-1H-carbazol-3-yl]-isobutyramide] | 1.8 nM | 110% | 4.8 nM |  |  |  | 
2 | CC(C)C(=O)N[C@H]1CCc2c(c3cc(C#N)ccc3n2Cc2ccccc2N)C1 (single isomer, unassigned) [Example 111, S-N-[9-(2-Amino-benzyl)-6-cyano-2,3,4,9-tetrahydro-1H-carbazol-3-yl]-isobutyramide] | 55.2 nM | 111% | 127 nM |  |  |  | 
3 | COc1cccc(Cn2c3c(c4cc(F)ccc42)CC(NC(=O)C(C)C)CC3)c1 (centres unmarked) [Example 10] |  | 40.4% |  |  |  |  | 
4 | CC(C)C(=O)NC1CCc2c(c3cc(Br)ccc3n2Cc2cccc(F)c2)C1 (centres unmarked) [Example 35, N-[6-bromo-9-(3-fluoro-benzyl)-2,3,4,9-tetrahydro-1H-carbazol-3-yl]-isobutyramide] | 2.3 nM | 74.1% | 2.6 nM |  |  |  | 
5 | CC(C)C(=O)NC1CCc2c(c3cc([N+](=O)[O-])ccc3n2Cc2cccc(F)c2)C1 (centres unmarked) [Example 61, N-[9-(3-Fluorobenzyl)-6-nitro-2,3,4,9-tetrahydro-1H-carbazol-3-yl]isobutyramide] | 3.6 nM | 83.2% | 2.3 nM |  |  |  | 
6 | CC(C)C(=O)NC1CCc2c(c3cc(N(C)C)ccc3n2Cc2cccc(F)c2)C1 (centres unmarked) [Example 62, N-[6-Dimethylamino-9-(3-fluoro-benzyl)-2,3,4,9-tetrahydro-1H-carbazol-3-yl]-isobutyramide] | 369 nM | 56.1% | 110 nM |  |  |  | 
7 | CC(C)C(=O)NC1CCc2c(c3cc(C(N)=S)ccc3n2Cc2cccc(F)c2)C1 (centres unmarked) [Example 64, N-(9-(3-Fluorobenzyl)-6-thiocarbamoyl-2,3,4,9-tetrahydro-1H-carbazol-3-yl)isobutyramide] |  |  |  | 89.3% | 9.3 nM | 14.5 nM | 
8 | CCC(=O)NC1CCc2c(c3cc(OC)ccc3n2Cc2ccccc2)C1 (centres unmarked) [Example 66, N-(9-Benzyl-6-methoxy-2,3,4,9-tetrahydro-1H-carbazol-3-yl)-propionamide] |  |  |  | 79.8% | 19.2 nM | 6.9 nM | 
9 | COc1ccc2c(c1)c1c(n2Cc2ccccc2)CCC(NC(=O)C(C)C)C1 (centres unmarked) [Example 67, N-(9-Benzyl-6-methoxy-2,3,4,9-tetrahydro-1H-carbazol-3-yl)-isobutyramide] | 18.6 nM | 96.9% | 6.2 nM |  |  |  | 
10 | COc1ccc2c(c1)c1c(n2Cc2ccccc2)CCC(NC(=O)C2CC2)C1 (centres unmarked) [Example 68, Cyclopropanecarboxylic acid (9-benzyl-6-methoxy-2,3,4,9-tetrahydro-1H-carbazol-3-yl)-amide] | 40.8 nM | 98% | 46.2 nM |  |  |  | 
11 | COc1ccc2c(c1)c1c(n2Cc2ccccc2Cl)CCC(NC(=O)C(C)C)C1 (centres unmarked) [Example 69, N-[9-(2-Chloro-benzyl)-6-methoxy-2,3,4,9-tetrahydro-1H-carbazol-3-yl]-isobutyramide] | 213 nM | 63.3% | 34.1 nM |  |  |  | 
12 | COc1ccc2c(c1)c1c(n2Cc2cccc(Cl)c2)CCC(NC(=O)C(C)C)C1 (centres unmarked) [Example 70] | 39.8 nM | 63.9% | 10 nM |  |  |  | 
13 | COc1ccc2c(c1)c1c(n2Cc2ccc(Cl)cc2)CCC(NC(=O)C(C)C)C1 (centres unmarked) [Example 71] | 402 nM | 40.7% | 82.5 nM |  |  |  | 
14 | COc1ccc2c(c1)c1c(n2Cc2ccccc2OC)CCC(NC(=O)C(C)C)C1 (centres unmarked) [Example 72] |  | 66.4% |  |  |  |  | 
15 | COc1cccc(Cn2c3c(c4cc(OC)ccc42)CC(NC(=O)C(C)C)CC3)c1 (centres unmarked) [Example 73] | 227 nM | 54.7% | 52.1 nM |  |  |  | 
16 | COc1ccc(Cn2c3c(c4cc(OC)ccc42)CC(NC(=O)C(C)C)CC3)cc1 (centres unmarked) [Example 74] |  | 22.6% |  |  |  |  | 

Row | SMILES | EC50 [1] | Emax [1, 3] | Ki [2] | Emax [1, 4] | EC50 [1, 5] | Ki [2, 6] | C2C12 % Efficacy ([1]; C2C12 AR/ARE reporter assay, average of n trials)
17 | COc1cccc2c3c(n(Cc4ccccc4)c12)CCC(NC(=O)C(C)C)C3 (centres unmarked) [Example 76] | 1710 nM | 58.1% | 478 nM |  |  |  | 
18 | COc1ccc2c3c(n(Cc4ccccc4)c2c1)CCC(NC(=O)C(C)C)C3 (centres unmarked) [Example 77] | 1200 nM | 74.9% | 103 nM |  |  |  | 
19 | COc1ccc2c(c1)c1c(n2Cc2ccccc2F)CCC(NC(=O)C(C)C)C1 (centres unmarked) [Example 78] | 238 nM | 71.5% | 187 nM |  |  |  | 
20 | COc1ccc2c(c1)c1c(n2Cc2cccc(F)c2)CCC(NC(=O)C(C)C)C1 (centres unmarked) [Example 79, N-[9-(3-fluoro-benzyl)-methoxy-2,3,4,9-tetrahydro-1H-carbazol-3-yl]-isobutyramide] |  |  |  |  | 16.4 nM | 28.2 nM | 85.7%
21 | COc1ccc2c(c1)c1c(n2Cc2ccc(F)cc2)CCC(NC(=O)C(C)C)C1 (centres unmarked) [Example 80] |  | 59.9% |  |  |  |  | 
22 | CC(C)C(=O)NC1CCc2c(c3cc(Cl)ccc3n2Cc2cccc(Br)c2)C1 (centres unmarked) [Example 81] | 94 nM | 81.9% | 11.3 nM |  |  |  | 
23 | Cc1cccc(Cn2c3c(c4cc(Cl)ccc42)CC(NC(=O)C(C)C)CC3)c1 (centres unmarked) [Example 82] | 37.1 nM | 87.3% | 6.1 nM |  |  |  | 
24 | CC(C)C(=O)NC1CCc2c(c3cc(Cl)ccc3n2Cc2cccc(C(F)(F)F)c2)C1 (centres unmarked) [Example 83] | 85.1 nM | 93.1% | 29.5 nM |  |  |  | 
25 | COC(=O)c1cccc(Cn2c3c(c4cc(Cl)ccc42)CC(NC(=O)C(C)C)CC3)c1 (centres unmarked) [Example 84] |  | 32.9% |  |  |  |  | 
26 | CC(C)C(=O)NC1CCc2c(c3cc(C#N)ccc3n2Cc2ccccc2)C1 (centres unmarked) [Example 85] | 3.8 nM | 79.8% | 4.6 nM |  |  |  | 
27 | CC(C)C(=O)NC1CCc2c(c3cc(C#N)ccc3n2Cc2cccc(Br)c2)C1 (centres unmarked) [Example 86] | 36.3 nM | 93.9% | 2.6 nM |  |  |  | 
28 | COc1ccc(Cn2c3c(c4cc(C#N)ccc42)CC(NC(=O)C(C)C)CC3)cc1 (centres unmarked) [Example 87] |  | 10.6% | 17.7 nM |  |  |  | 
29 | CC(C)C(=O)NC1CCc2c(c3cc(C#N)ccc3n2Cc2cccc([N+](=O)[O-])c2)C1 (centres unmarked) [Example 88, N-[6-cyano-9-(3-nitro-benzyl)2,3,4,9-tetrahydro-1H-carbazol-3-yl]-isobutyramide] |  | 96.1% |  |  |  |  | 
30 | CC(C)C(=O)NC1CCc2c(c3cc(C#N)ccc3n2Cc2cc(F)cc(F)c2)C1 (centres unmarked) [Example 89] | 1.9 nM | 78.5% | 3.3 nM |  |  |  | 
31 | CC(C)C(=O)NC1CCc2c(c3cc(C#N)ccc3n2Cc2cccc(N)c2)C1 (centres unmarked) [Example 90, N-[9-(3-Amino-benzyl)-6-cyano-2,3,4,9-tetrahydro-1H-carbazol-3-yl]-isobutyramide] | 123 nM | 67.6% | 30.5 nM |  |  |  | 
32 | CC(C)C(=O)NC1CCc2c(c3cc(O)ccc3n2Cc2cccc(F)c2)C1 (centres unmarked) [Example 91, N-[9-(3-Fluoro-benzyl)-6-hydroxy-2,3,4,9-tetrahydro-1H-carbazol-3-yl]-isobutyramide] | 97.1 nM | 86.9% | 11.8 nM |  |  |  | 
